From ChEMBL document CHEMBL1201862, “PubChem BioAssay data set” (2004)
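Assay format: 96-well plates, 48-hour exposure. GI50 = concentration required for 50% inhibition of growth.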 Activity calls are given as the source filed them. Cut-off read from the data, not from the text of the source: active = GI50 up to about 1.1 µM and inactive = higher.

Columns and labels:
Experiment in all cases: NCI anticancer screen, dose series, 48 h
[1] = tested on: A549
[2] = tested on: UACC-257
[3] = tested on: M19-MEL
[4] = tested on: OVCAR-8
[5] = tested on: HT-29
[6] = tested on: OVCAR-5
[7] = tested on: NCI-H460
[8] = tested on: 786-0
[9] = tested on: KM-20L2
[10] = tested on: NCI-H226
[11] = tested on: U-251
[12] = tested on: OVCAR-4
[13] = tested on: COLO 205
[14] = tested on: A498
[15] = tested on: UACC-62
[16] = tested on: LOX IMVI
[17] = tested on: SF-268
[18] = tested on: UO-31
[19] = tested on: SNB-75
[20] = tested on: CAKI-1
[21] = tested on: HOP-62
[22] = tested on: IGROV-1
[23] = tested on: SF-295
[24] = tested on: HOP-18
[25] = tested on: DMS-114
[26] = tested on: SF-539
[27] = tested on: HL-60
[28] = tested on: K562
[29] = tested on: XF498
[30] = tested on: TK-10
[31] = tested on: Malme-3M
[32] = tested on: SK-OV-3
[33] = tested on: KM12
[34] = tested on: SR
[35] = tested on: CCRF-CEM
[36] = tested on: SN12C
[37] = tested on: OVCAR-3
[38] = tested on: NCI-H23
[39] = tested on: HCT-116
[40] = tested on: SW-620
[41] = tested on: DMS-273
[42] = tested on: MOLT-4
[43] = tested on: ACHN
[44] = tested on: HCC 2998
[45] = tested on: RPMI-8226
[46] = tested on: SK-MEL-28
[47] = tested on: EKVX
[48] = tested on: SK-MEL-5
[49] = tested on: SK-MEL-2
[50] = tested on: M14
[51] = tested on: SNB-19
[52] = tested on: NCI-H522
[53] = tested on: LXFL 529
[54] = tested on: HCT-15
[55] = tested on: DLD-1
[56] = tested on: HOP-92

With `CCC/C=C1\CCC(CN(C)C)C1=O` (stereo unspecified) the GI50 [1] was 29.6 µM (inactive), the GI50 [2] was 15 µM (inactive) and the GI50 [3] was 12.9 µM (inactive). The GI50 [4] was 10.2 µM (inactive), the GI50 [5] was 8.11 µM (inactive) and the GI50 [6] was 20 µM (inactive). The GI50 [7] was 28.1 µM (inactive), the GI50 [8] was 2.81 µM (inactive) and the GI50 [9] was 10.3 µM (inactive). For the same compound, the GI50 [10] was 19 µM (inactive), the GI50 [11] was 5.81 µM (inactive) and the GI50 [12] was 18.8 µM (inactive). The GI50 [13] was 3.1 µM (inactive), the GI50 [14] was 0.455 µM (active) and the GI50 [15] was 14.6 µM (inactive). For the same compound, the GI50 [16] was 7.35 µM (inactive), the GI50 [17] was 14.5 µM (inactive) and the GI50 [18] was 12.4 µM (inactive). For the same compound, the GI50 [19] was 18.1 µM (inactive), the GI50 [20] was 2.13 µM (inactive) and the GI50 [21] was 15.7 µM (inactive). The GI50 [22] was 18.5 µM (inactive), the GI50 [23] was 24.1 µM (inactive) and the GI50 [24] was 23.4 µM (inactive). The GI50 [25] was 15.6 µM (inactive), the GI50 [26] was 10.8 µM (inactive) and the GI50 [27] was 9.25 µM (inactive). The GI50 [28] was 2.15 µM (inactive), the GI50 [29] was 5.57 µM (inactive) and the GI50 [30] was 5.41 µM (inactive). The GI50 [31] was 1.77 µM (inactive), the GI50 [32] was 36.3 µM (inactive) and the GI50 [33] was 4.67 µM (inactive). The GI50 [34] was 2.49 µM (inactive), the GI50 [35] was 1.09 µM (active) and the GI50 [36] was 16.9 µM (inactive). For the same compound, the GI50 [37] was 5.47 µM (inactive), the GI50 [38] was 17.1 µM (inactive) and the GI50 [39] was 9.91 µM (inactive). The GI50 [40] was 4.6 µM (inactive), the GI50 [41] was 11.9 µM (inactive) and the GI50 [42] was 2.88 µM (inactive). The GI50 [43] was 5.62 µM (inactive), the GI50 [44] was 15.8 µM (inactive) and the GI50 [45] was 0.333 µM (active). For the same compound, the GI50 [46] was 6.52 µM (inactive), the GI50 [47] was 6.12 µM (inactive) and the GI50 [48] was 16.7 µM (inactive). For the same compound, the GI50 [49] was 15.9 µM (inactive), the GI50 [50] was 6.52 µM (inactive) and the GI50 [51] was 36.7 µM (inactive). For the same compound, the GI50 [52] was 1.93 µM (inactive), the GI50 [53] was 1.82 µM (inactive) and the GI50 [54] was 2.51 µM. For the same compound, the GI50 [55] was 2.38 µM (inactive) and the GI50 [56] was 3.04 µM (inactive).
